# Source: patent EP0888055B1, “HERBICIDAL COMPOSITION AND METHOD OF WEED CONTROL” (Novartis AG, priority 1996, dated 1997)
# How the values were obtained:
# Maize = assay: Pre-emergence test (Example B2), tolerance of useful plant; assay type: in vivo
# Source text: (§1) The test plants are sown in plastics pots in standard soil. Directly after sowing the test compounds are applied by spraying, separately or in admixture, in the form of an aqueous suspension of the test compounds (Formulation Example F8, c) and d)) or in the form of an emulsion concentrate (Formulation Example F1, d)) in 500 l of water/ha. The rates of application conform to the optimum concentrations ascertained under field conditions and greenhouse conditions. The test plants are then cultivated in the greenhouse under optimum conditions. After 34 days' (Tables B2 to B5) and 41 days' (Table B6) test duration, the test is evaluated (% action, 100 % = plants have died, 0 % = no phytotoxic action). From 61 to 80 % (especially from 81 to 100 %) phytotoxicity indicates good to very good herbicidal action in weeds; from 0 to 15 % (especially from 0 to 5 %) phytotoxicity indicates good to very good tolerance in useful plants.
# Abutilon = assay: Pre-emergence test (Example B2); assay type: in vivo
# Source text: (§2) The expected herbicidal action E for a given combination of two herbicides can be calculated as follows (see COLBY, S.R., "Calculating synergistic and antagonistic response of herbicide combinations", Weeds 15, pages 20-22, 1967): E = X +(Y • (100 - X))/(100) [formula]
# (§3) In the above formula: X = percentage growth inhibition in the case of treatment with the compound of formula A at a rate of application of p kg per hectare compared with the untreated control (= 0 %). Y = percentage herbicidal action in the case of treatment with one of the mixing partners at a rate of application of q kg per hectare compared with the untreated control. E = Expected herbicidal action (percentage herbicidal action compared with the untreated control) after treatment with the compounds of formulae A and the mixing partners at a rate of application of p + q kg of active ingredient per hectare.
# as §1
# (§4) Test plants: abutilon, bidens, euphorbia, ipomoea, sesbamia, xanthium, rottboellia, sida, Sorghum bicolor.
# Euphorbia = assay: Pre-emergence test (Example B2); assay type: in vivo
# Source text: as §2, §3, §1, §4
# Ipomoea = assay: Pre-emergence test (Example B2); assay type: in vivo
# Source text: as §2, §3, §1, §4
# Rottboellia = assay: Pre-emergence test (Example B2); assay type: in vivo; details: 125 g active ingredient/ha, 41 days
# Source text: as §2, §3, §1, §4
# Sida = assay: Pre-emergence test (Example B2); assay type: in vivo; details: 41 days
# Source text: as §2, §3, §1, §4
# Sorghum bic. = assay: Pre-emergence test (Example B2); assay type: in vivo, Sorghum bicolor; details: 1000 g active ingredient/ha, 41 days
# Source text: as §2, §3
# The test plants are sown in plastics pots in standard soil. Directly after sowing the test compounds are applied by spraying, separately or in admixture, in the form of an aqueous suspension of the test compounds (Formulation Example F8, c) and d)) or in the form of an emulsion concentrate (Formulation Example F1, d)) in 500 l of water/ha. […] After 34 days' (Tables B2 to B5) and 41 days' (Table B6) test duration, the test is evaluated (% action, 100 % = plants have died, 0 % = no phytotoxic action). […]
# Bidens = assay: Pre-emergence test (Example B2); assay type: in vivo; details: 125 g active ingredient/ha, 34 days
# Source text: as §2, §3, §1, §4
# Xanthium = assay: Pre-emergence test (Example B2); assay type: in vivo; details: 34 days
# Source text: as §2, §3, §1, §4
# Brachiaria = assay: Post-emergence test (Example B1); assay type: in vivo; details: 24 days
# Source text: as §2, §3
# (§5) The test plant seeds are grown to the 4- to 6-leaf stage under greenhouse conditions in plastics pots. The culture substrate used is a standard soil. At the 4- to 6-leaf stage the herbicides are applied separately and in admixture to the test plants. The test compounds are applied in the form of an aqueous suspension (Formulation Example F8, c)) in 500 l of water/ha. The rates of application conform to the optimum concentrations ascertained under field conditions and greenhouse conditions. Evaluation of the tests is carried out after 24 days. The following linear scale is used as a measure (% action): • 100 % = plants have died • 50 % = moderate action • 0 % = no phytotoxic action (as untreated control).
# (§6) Test plants: brachiaria, cyperus, digitaria, echinochloa, panicum.
# Digitaria = assay: Post-emergence test (Example B1); assay type: in vivo; details: 100 g active ingredient/ha, 24 days
# Source text: as §2, §3, §5, §6
# Echinochloa = assay: Post-emergence test (Example B1); assay type: in vivo; details: 24 days
# Source text: as §2, §3, §5, §6
# Panicum = assay: Post-emergence test (Example B1); assay type: in vivo; details: 100 g active ingredient/ha, 24 days
# Source text: as §2, §3, §5, §6
# [1] = 250 g active ingredient/ha, 41 days
# [2] = 500 g active ingredient/ha, 41 days
# [3] = 1000 g active ingredient/ha, 41 days
# [4] = 125 g active ingredient/ha, 34 days
# [5] = 250 g active ingredient/ha, 34 days
# [6] = 500 g active ingredient/ha, 34 days
structure (smiles),measurement,setting,value
"COCC(C)N(C(=O)CCl)c1c(C)csc1C (stereo not drawn) [Dime, dimethenamid]","Herbicidal activity, Useful plant: Maize","Maize; 125 g active ingredient/ha, 41 days",0%
same,"Herbicidal activity, Useful plant: Maize",Maize; [1],0%
same,"Herbicidal activity, Useful plant: Maize",Maize; [2],0%
same,"Herbicidal activity, Useful plant: Maize",Maize; [3],20%
same,"Herbicidal activity, Weed: Abutilon",Abutilon; [1],10%
same,"Herbicidal activity, Weed: Euphorbia",Euphorbia; [2],30%
same,"Herbicidal activity, Weed: Ipomoea",Ipomoea; [3],0%
same,"Herbicidal activity, Weed: Rottboellia",Rottboellia,20%
same,"Herbicidal activity, Weed: Sida",Sida; 250 g active ingredient/ha,40%
same,"Herbicidal activity, Weed: Sida",Sida; 500 g active ingredient/ha,85%
same,"Herbicidal activity, Weed: Sida",Sida; 1000 g active ingredient/ha,95%
same,"Herbicidal activity, Weed: Sorghum bic.",Sorghum bic.,80%
"CCNc1nc(Cl)nc(NC(C)C)n1 [Atra, atrazine]","Herbicidal activity, Useful plant: Maize",Maize; [4],0%
same,"Herbicidal activity, Useful plant: Maize",Maize; [5],0%
same,"Herbicidal activity, Useful plant: Maize",Maize; [6],0%
same,"Herbicidal activity, Weed: Abutilon",Abutilon; [4],0%
same,"Herbicidal activity, Weed: Abutilon",Abutilon; [6],98%
same,"Herbicidal activity, Weed: Bidens",Bidens,60%
same,"Herbicidal activity, Weed: Euphorbia",Euphorbia; [4],0%
same,"Herbicidal activity, Weed: Ipomoea",Ipomoea; [4],0%
same,"Herbicidal activity, Weed: Ipomoea",Ipomoea; [5],70%
same,"Herbicidal activity, Weed: Xanthium",Xanthium; 250 g active ingredient/ha,0%
same,"Herbicidal activity, Weed: Xanthium",Xanthium; 500 g active ingredient/ha,95%
"O=C(O)CNCP(=O)(O)O [Gly, glyphosate]","Herbicidal activity, Weed: Brachiaria",Brachiaria; 200 g active ingredient/ha,60%
same,"Herbicidal activity, Weed: Brachiaria",Brachiaria; 300 g active ingredient/ha,70%
same,"Herbicidal activity, Weed: Brachiaria",Brachiaria; 400 g active ingredient/ha,70%
same,"Herbicidal activity, Weed: Digitaria",Digitaria,25%
same,"Herbicidal activity, Weed: Echinochloa",Echinochloa; 200 g active ingredient/ha,0%
same,"Herbicidal activity, Weed: Echinochloa",Echinochloa; 400 g active ingredient/ha,20%
same,"Herbicidal activity, Weed: Panicum",Panicum,70%
